According to publication PMC3064998, “In Vitro Selection of Cathepsin E-Activity-Enhancing Peptide Aptamers at Neutral pH” (International Journal of Peptides, 2011):
Ends that are not written are not given here.

Columns and labels:
cathepsin E = biological target: T1, cathepsin E (Rattus norvegicus, UniProt P16228); assay: SPR (Biacore 2000) measurement of KD; conditions: CatE immobilized on CM5 chip, running buffer 50 mM Tris-HCl, 100 mM NaCl, pH 7.4, four peptide concentrations, 1:1 binding with mass transfer model, unit M printed in b35 only, read-out: KD (dissociation constant)
T1 construct: The enzyme CatE was prepared from rat spleen according to the method previously described; from tissue; host or cells: rat spleen
T1 sequence (P16228 59-398): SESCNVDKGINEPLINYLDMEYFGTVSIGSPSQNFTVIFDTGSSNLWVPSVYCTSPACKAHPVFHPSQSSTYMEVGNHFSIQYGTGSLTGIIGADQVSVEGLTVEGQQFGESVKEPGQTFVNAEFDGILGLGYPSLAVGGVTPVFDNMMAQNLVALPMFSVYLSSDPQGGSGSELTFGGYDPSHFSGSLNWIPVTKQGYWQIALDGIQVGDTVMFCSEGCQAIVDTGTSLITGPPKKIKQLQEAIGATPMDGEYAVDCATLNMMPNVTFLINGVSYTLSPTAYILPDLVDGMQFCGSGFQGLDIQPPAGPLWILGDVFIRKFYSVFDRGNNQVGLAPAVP
Description: (§1) A fluorogenic substrate susceptible at neutral pH to the protease cathepsin E, which usually functions at acidic pH, was designed as per reference: [Nma-Gly-Gly-Arg-Arg-Ser-Gly-Thy-Cys-Gly(Dnp)-D-Arg-NH2]. The peptide was custom-synthesized at Peptide Institute (Osaka, Japan) and confirmed to be an effective substrate at pH 7.4. The peptide was dissolved in dimethyl sulfoxide (DMSO) at 10 mM and stored in a deep freezer until use. The enzyme CatE was prepared from rat spleen according to the method previously described and immobilized on N-hydroxysuccinimide-activated sepharose beads (GE Healthcare, USA) using the amine-coupling method and stored in, 100 mM phosphate buffer (pH 7.4) at 4°C.
An SPR instrument, Biacore 2000 (GE Healthcare, UK), was used for measuring KD for the binding of cathepsin E and selected peptides. Cathepsin E was immobilized onto Biacore sensor chip CM5 (GE Healthcare, UK) by the amine-coupling method using an Amine Coupling Kit (GE Healthcare, UK). Immobilization of cathepsin E was performed using running buffer (50 mM sodium acetate, 100 mM NaCl, pH 4.5). To determine dissociation constants, four different concentrations of selected peptides were used for the interaction. […] The binding data were analyzed with the 1 : 1 binding with mass transfer model in the BIAevaluation software version 4 : 1 (Biacore).

cathepsin E (CatE) = assay: CatE-activity-enhancement assay at neutral pH (fluorogenic substrate); assay type: biochemical, rat; conditions: pH 7.4; for Activities (%) Asy (CatE activity with chemically synthesized peptide): CatE 20 nM : peptide 1:1; for Activities (%) Asy (CatE activity with chemically synthesized peptide) / Activities (%) Adp (CatE activity with in vitro translated peptide): 50 mM Tris-HCl, 100 mM NaCl, preincubation 25°C 10 min, substrate 5 μM, 37°C 1 h, fluorescence ex 340/em 440 nm, 100% = CatE + substrate without peptide; for Activities (%) Adp (CatE activity with in vitro translated peptide): CatE 20 nM : peptide 1:1 (20 nM), three independent experiments
Description: as §1
CatE-activation by peptide aptamers was assayed by the method described previously but with a few modifications. Briefly, the CatE (20 nM) solution preincubated with a peptide aptamer in a 1 : 1 molar ratio in the selection buffer (50 mM Tris-HCl, 100 mM NaCl, pH 7.4) at 25°C for 10 min. was combined with the fluorogenic substrate (5 μM) and the enzyme reaction performed at 37°C for 1 h. The reaction product was measured by fluorescence intensity at 440 nm with an excitation wavelength of 340 nm using a fluorescence microplate reader, Infinite 200 (Tecan, Japan). The percentage of activation (A) was calculated by fitting the data to the following equation:
(1) A=100×Sf−Bf/Cf−Bf [% activation], where Sf represents the fluorescence intensity of the positive reaction consisting of the enzyme (CatE), the fluorogenic substrate, and a possible peptide activator; C f is that of the control reaction mixture consisting of CatE and fluorogenic substrate (without peptide activator); B f is the background fluorescence of the negative reaction mixture consisting of only the fluorogenic substrate.

[1] = biological target: T2, P1 (p2006) peptide aptamer; assay: SPR
T2 chain: VGCDFMYV

[2] = biological target: T3, S3 (p4038) peptide aptamer; assay: SPR
T3 chain: IGCEERSFPNIIIIIG

[3] = biological target: T4, P3 (p3006) peptide aptamer; assay: SPR
T4 chain: IEGRVGCDFMYVG

## IEGRVGCDFMYVG [P3]
Cathepsin E
  Kd: 334 nM

## IGCEERSFPNIIIIIG [S3]
Cathepsin E
  Kd: 389 nM

## KGPPPCPC [P2]
Cathepsin E (CatE)
  Activities (%) Asy (CatE activity with chemically synthesized peptide): 110 ± 4%
  Activities (%) Adp (CatE activity with in vitro translated peptide): 128 ± 20%
Cathepsin E (CatE); in vitro translation synthesized peptides
  enhancement of CatE-activity (increase over control): 10 to 30%

## PGIKPPPCIIIIG [S2]
Cathepsin E (CatE)
  Activities (%) Asy (CatE activity with chemically synthesized peptide): 144.5 ± 11%
  Activities (%) Adp (CatE activity with in vitro translated peptide): 180 ± 10%

## SPIISHIVGCDPPSCG [S1]
Cathepsin E (CatE)
  Activities (%) Adp (CatE activity with in vitro translated peptide): 160 ± 20%

B1: Cathepsin E (protein)
chain: SESCNVDKGINEPLINYLDMEYFGTVSIGSPSQNFTVIFDTGSSNLWVPSVYCTSPACKAHPVFHPSQSSTYMEVGNHFSIQYGTGSLTGIIGADQVSVEGLTVEGQQFGESVKEPGQTFVNAEFDGILGLGYPSLAVGGVTPVFDNMMAQNLVALPMFSVYLSSDPQGGSGSELTFGGYDPSHFSGSLNWIPVTKQGYWQIALDGIQVGDTVMFCSEGCQAIVDTGTSLITGPPKKIKQLQEAIGATPMDGEYAVDCATLNMMPNVTFLINGVSYTLSPTAYILPDLVDGMQFCGSGFQGLDIQPPAGPLWILGDVFIRKFYSVFDRGNNQVGLAPAVP
[1]
  Kd: ~10000 nM
[2]
  Kd: 389 nM
[3]
  Kd: 334 nM
